The target of data set [1] is Voltage-gated inwardly rectifying potassium channel KCNH2 (Homo sapiens, UniProt Q12809). As to the kind of experiment: Displacement of [3H]-dofetilite from human ERG (unknown origin). It counts as toxicity. On the technique in general: Displacement assays read how much labelled ligand stays bound in the presence of the test substance.
The nature of data set [2]: Solubility of the compound. It counts as physicochemical.
The target in another data set is T1, Toll-like receptor 7 (Mus musculus, UniProt P58681).
T1 sequence (P58681 whole entry): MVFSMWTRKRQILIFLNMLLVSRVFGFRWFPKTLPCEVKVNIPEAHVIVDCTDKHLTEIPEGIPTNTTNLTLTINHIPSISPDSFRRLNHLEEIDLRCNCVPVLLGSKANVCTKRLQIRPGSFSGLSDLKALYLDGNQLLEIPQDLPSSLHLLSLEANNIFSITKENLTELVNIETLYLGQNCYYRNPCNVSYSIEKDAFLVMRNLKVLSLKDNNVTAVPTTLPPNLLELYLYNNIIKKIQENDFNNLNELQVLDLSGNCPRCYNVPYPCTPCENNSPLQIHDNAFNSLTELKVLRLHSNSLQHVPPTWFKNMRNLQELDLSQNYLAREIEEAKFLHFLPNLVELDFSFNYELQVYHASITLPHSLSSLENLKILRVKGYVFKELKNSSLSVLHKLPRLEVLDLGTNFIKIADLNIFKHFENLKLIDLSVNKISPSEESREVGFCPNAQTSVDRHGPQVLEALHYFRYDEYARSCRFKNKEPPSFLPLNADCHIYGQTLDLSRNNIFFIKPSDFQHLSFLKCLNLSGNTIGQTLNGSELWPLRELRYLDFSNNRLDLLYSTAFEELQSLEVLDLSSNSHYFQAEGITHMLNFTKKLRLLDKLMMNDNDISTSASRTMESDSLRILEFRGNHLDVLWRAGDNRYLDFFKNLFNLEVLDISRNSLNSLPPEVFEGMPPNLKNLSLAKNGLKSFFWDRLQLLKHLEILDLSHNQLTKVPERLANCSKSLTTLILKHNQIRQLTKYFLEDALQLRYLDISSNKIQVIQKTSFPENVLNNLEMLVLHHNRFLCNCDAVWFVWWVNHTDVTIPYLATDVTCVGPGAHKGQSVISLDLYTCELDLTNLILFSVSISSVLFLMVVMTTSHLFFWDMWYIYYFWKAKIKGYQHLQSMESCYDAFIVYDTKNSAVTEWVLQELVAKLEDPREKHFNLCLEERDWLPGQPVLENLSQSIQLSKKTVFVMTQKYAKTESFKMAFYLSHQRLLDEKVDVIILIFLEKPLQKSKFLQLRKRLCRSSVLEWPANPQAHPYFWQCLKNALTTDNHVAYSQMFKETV
As to the kind of experiment: Antagonist activity at TLR7 in mouse Splenocyte assessed as reduction in IFN-alpha level measured after 20 hrs by Spectramax M5 method. It counts as cell-based.

≈ marks a conversion by molar mass, not a printed value.

In general, IC50 refers to the concentration at which inhibition is half-maximal. As usually defined, the solubility is the dissolved amount per volume that the medium holds. The low end stands for a poorly soluble substance, the high end for a readily soluble substance.

Chain of Voltage-gated inwardly rectifying potassium channel KCNH2 (Q12809 whole entry): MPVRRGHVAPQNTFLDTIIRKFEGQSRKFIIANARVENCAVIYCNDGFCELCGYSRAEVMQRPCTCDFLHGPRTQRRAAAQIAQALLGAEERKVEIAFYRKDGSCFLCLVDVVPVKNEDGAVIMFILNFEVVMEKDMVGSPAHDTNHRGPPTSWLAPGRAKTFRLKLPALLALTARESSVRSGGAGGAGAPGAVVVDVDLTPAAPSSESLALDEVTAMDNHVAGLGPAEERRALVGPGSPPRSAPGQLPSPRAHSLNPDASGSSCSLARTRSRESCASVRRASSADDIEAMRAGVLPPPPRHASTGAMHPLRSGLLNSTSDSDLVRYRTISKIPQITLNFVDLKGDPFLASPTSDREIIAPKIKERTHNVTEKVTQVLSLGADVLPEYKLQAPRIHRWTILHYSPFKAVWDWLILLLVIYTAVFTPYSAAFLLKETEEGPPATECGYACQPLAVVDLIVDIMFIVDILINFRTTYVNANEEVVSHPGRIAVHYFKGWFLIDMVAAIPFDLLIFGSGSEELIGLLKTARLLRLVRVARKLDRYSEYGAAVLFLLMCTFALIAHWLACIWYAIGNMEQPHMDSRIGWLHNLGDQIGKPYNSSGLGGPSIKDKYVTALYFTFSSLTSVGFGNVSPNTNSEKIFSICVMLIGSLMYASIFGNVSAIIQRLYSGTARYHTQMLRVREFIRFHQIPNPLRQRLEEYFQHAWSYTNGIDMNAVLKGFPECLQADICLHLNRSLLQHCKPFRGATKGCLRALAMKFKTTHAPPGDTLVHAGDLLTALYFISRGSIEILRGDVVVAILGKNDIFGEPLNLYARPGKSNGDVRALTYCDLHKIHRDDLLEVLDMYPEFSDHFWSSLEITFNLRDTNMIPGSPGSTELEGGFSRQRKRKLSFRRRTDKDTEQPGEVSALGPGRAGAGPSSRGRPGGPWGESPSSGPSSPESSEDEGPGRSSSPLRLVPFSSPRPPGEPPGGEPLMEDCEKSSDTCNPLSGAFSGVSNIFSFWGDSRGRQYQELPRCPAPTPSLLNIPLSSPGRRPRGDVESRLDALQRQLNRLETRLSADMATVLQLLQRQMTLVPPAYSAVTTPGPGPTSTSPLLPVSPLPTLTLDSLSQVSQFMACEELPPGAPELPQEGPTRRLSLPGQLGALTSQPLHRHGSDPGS

Regarding `Cc1cc(-c2cnc(OCC34CCC(N)(CC3)CC4)c(C)c2)c2cnn(C)c2n1`, the IC50 in data set [1] is 3.4 µM; at Toll-like receptor 7, less than 0.005 µM. Moreover, in data set [2], the concentration in solution (solubility) was 110 µM (≈ 43.1 µg/mL).

The record behind these values is ChEMBL document CHEMBL5360657, “Discovery of the TLR7/8 Antagonist MHV370 for Treatment of Systemic Autoimmune Diseases” (ACS Med Chem Lett, 2023).
